Results on one molecule are retold here after patent publication US20230364084A1, “METHODS FOR PREVENTING OR TREATING CONDITIONS RELATED TO PIKFYVE ACTIVITY” (The Regents of the University of Michigan, priority 2020, published 2023).

Experiment [1] concerns prostate cancer cell lines (VCaP, LNCaP, 22RV1, LNCaP-AR, PC3, DU145). As to the kind of experiment: long-term survival assay (14 days, crystal violet). The experiment is classed as cell-based, human. Particulars: Homo sapiens, 336 h; range across AR positive (VCaP, LNCaP, 22RV1, LNCaP-AR) and AR-negative (PC3, DU145) cell lines, two weeks; read-out: growth inhibitory IC50. As for the experimental part:
Single cell suspensions were seeded into 96-well plates at a density of 1,000-30,000 cells per well. Long-term survival was determined after 14 days of drug incubation. Viable cells were fixed with 4% formaldehyde and subsequently stained with 1% crystal violet. IC50 was calculated using GraphPad Prism.

Experiment [2] relates to invasive prostate cancer cell lines. As to the kind of experiment: Matrigel invasion assay. The experiment is classed as cell-based, human. Conditions: four invasive prostate cancer cell lines, 24-hour incubation. As for the experimental part: 2-5×10^5 cells were seeded onto 8-μm Matrigel-coated fluoroblok transwells with serum-free medium and various concentrations of ESK981. Medium containing 10% FBS in the lower chamber served as a chemoattractant. After 24-hour incubation, invaded cells were stained with […] at 37° C., and fluorescence intensity was quantified with a TECAN M1000 plate reader.

Experiment [3] concerns MDA-PCa-146-10 neuroendocrine prostate cancer PDX. As to the kind of experiment: MDA-PCa-146-10 patient-derived xenograft. The experiment is classed as in vivo, mouse. Particulars: 30 mg/kg. As for the experimental part: The University of Texas M.D. Anderson Cancer Center (MDACC) patient-derived xenografts (PDX) series has been previously described^62-64. PDXs were derived from men with CRPC undergoing palliative resections using described protocols^65,66. MDA-PCa-146-12 and 146-10 PDX were derived from a patient initially diagnosed with Gleason 3+4=7 prostate adenocarcinoma with an initial PSA of 10.7 ng/ml. […] PDXs were maintained in male SCID mice by surgically implanting 2 mm^3 tumors coated with 100% Matrigel to both flanks of mice. Once tumors reached 100-200 mm^3 in size, mice were randomized and divided into different treatment groups receiving either 30 mg/kg ESK981 or vehicle (ORA-PLUS) by oral gavage 5 days per week.
(In xenograft studies the graft and the host belong to different species.)

Experiment [4] has as its system LC3-II in prostate cancer cell lines. In words: LC3 lipidation western blot. The experiment is classed as cell-based, human. On the procedure:
Cell lysates were harvested in Pierce RIPA Lysis buffer (Thermo Scientific) containing protease inhibitor cocktail tablets (Roche) and phosphatase inhibitor cocktail (Millipore). Protein concentration was measured using the DC Protein Assay (Bio-Rad) to ensure an equal amount of protein was loaded onto a gel. The denatured lysates were separated on NuPage 4-12% Bis-Tris Midi Protein gels (Novex) and transferred to 0.45-μm PVDF transfer membrane (Immobilon) using a TransBlot Turbo dry transfer machine (Bio-Rad). The membrane was incubated in blocking buffer (5% non-fat dry milk, Tris-buffered saline with 0.1% Tween 20) for 1 hour at room temperature. The membrane was then incubated with the listed antibodies for 1 hour at room temperature, followed by overnight incubation at 4° C. Chemiluminescent detection using ECL Prime (Amersham) and HyBlot CL autoradiography film (Denville Scientific) was used to visualize the blots. Antibodies used in the immunoblotting assays were against ATG5 (Cat No. 12994S, Cell Signaling Technology), ATG7 (Cat No. 8558S, Cell Signaling Technology), ULK1 (Cat No. 8054S, Cell Signaling Technology), Beclin1 (Cat No. 4122S, Cell Signaling Technology), FIP200 (Cat No. 12436S, Cell Signaling Technology), LC3A/B (Cat No. 127415, Cell Signaling Technology), PIKfyve (Cat No. AF7885, R&D Systems), and GAPDH (Cat No. 3683S, Cell Signaling Technology).
In general terms: In western blotting, separated proteins are transferred to a membrane and probed.

Experiment [5] deals with GFP-LC3 expressing DU145 cells. As to the kind of experiment: GFP-LC3 puncta confocal imaging. The experiment is classed as cell-based, human. On the procedure:
For GFP-LC3 confocal imaging, GFP-LC3 expressing DU145 cells were seeded on coverslips overnight and treated with ESK981 at 300 nM for various time points. Coverslips were then fixed with 10% paraformaldehyde. Confocal images were taken using a Nikon A1 confocal microscope.

Experiment [6] deals with lysosomes in VCaP, LNCaP, PC3 and DU145 cells. As to the kind of experiment: LysoTracker Green flow cytometry. The experiment is classed as cell-based, human. Particulars: four prostate cancer cell lines, 24 hours, increasing concentrations. As for the experimental part:
Cells were grown in 6-well plates and treated with various drugs. After 24 hours, cells were stained with LysoTracker® Green DND-26 (Invitrogen), and green fluorescence signal was analyzed by flow cytometry.
In general terms: Flow cytometry measures light scatter and fluorescence of single cells or particles in a stream.

A further experiment has as its system PC3 and DU145 cells. As to the kind of experiment: autophagic flux detection (GFP-LC3-RFP-LC3ΔG probe). The experiment is classed as cell-based, human. Particulars: PC3 or DU145 cells, 24 hours. As for the experimental part:
(§1) For autophagic flux detection, 10,000 cells were plated in 96-well plates and incubated with various compounds in complete medium for 24 hours. GFP and RFP fluorescence intensities were measured on a TECAN M1000 plate reader.

The subject of experiment [7] is GFP-LC3-RFP-LC3ΔG-expressing Myc-CaP cells. In words: autophagic flux detection in Myc-CaP cells. Particulars: 24 hours. The experiment is classed as cell-based, mouse. As for the experimental part:
as §1

For experiment [8], the system named is mouse embryonic fibroblast (MEF) cells. In words: vacuolization and LC3 lipidation in Atg5 wild-type and knockout MEF cells. The experiment is classed as cell-based. Conditions: 300 nM, 24 hours.
The next experiment has as its system CXCL10 in VCaP cells. In words: human CXCL10 ELISA of conditioned medium. The experiment is classed as cell-based. Conditions: VCaP-conditioned medium, 300 nM, 24 hours. On the procedure:
Conditioned medium was collected after 24 hours of drug incubation. ELISA was performed using a human CXCL10 ELISA kit (Cat No. KAC2361, ThermoFisher), or a mouse CXCL10 ELISA kit (Cat No. ab214563, Abcam) according to the manufacturer's instructions.

A further experiment has as its target VEGFR-1 (FLT1) (Homo sapiens, UniProt P17948). Conditions: cited from earlier work.
The target of a further experiment is PIKfyve (Homo sapiens, UniProt Q9Y2I7). In words: kinase dissociation constant analysis (KdELECT). The experiment is classed as binding. Set-up: purchased DiscoveRX (KINOMEscan scanLIPID panel; KdELECT). Particulars: 11-point dose-response, duplicate. On the procedure: Quantitative binding constants (Kd) of ESK981 to PIKfyve, PIP5K1A, PIP5K1C, and PIK3CA were generated using KdELECT® platform (DiscoveRX). An 11-point dose-response of ESK981 (0.05-3000 nM) was used, and the experiment was performed in duplicate. Detailed information is described on the DiscoveRX website (www.discoverx.com).

Bounds are passed on as bounds.

One may read the IC50 as the concentration that inhibits the measured activity by half. For orientation: Kd means the free concentration of one partner at which half of the binding sites on the other are occupied at equilibrium, for simple one-to-one binding. The low end stands for tighter binding, the high end for weaker binding.

Chain of VEGFR-1 (FLT1) (P17948 27-1338, species assumed): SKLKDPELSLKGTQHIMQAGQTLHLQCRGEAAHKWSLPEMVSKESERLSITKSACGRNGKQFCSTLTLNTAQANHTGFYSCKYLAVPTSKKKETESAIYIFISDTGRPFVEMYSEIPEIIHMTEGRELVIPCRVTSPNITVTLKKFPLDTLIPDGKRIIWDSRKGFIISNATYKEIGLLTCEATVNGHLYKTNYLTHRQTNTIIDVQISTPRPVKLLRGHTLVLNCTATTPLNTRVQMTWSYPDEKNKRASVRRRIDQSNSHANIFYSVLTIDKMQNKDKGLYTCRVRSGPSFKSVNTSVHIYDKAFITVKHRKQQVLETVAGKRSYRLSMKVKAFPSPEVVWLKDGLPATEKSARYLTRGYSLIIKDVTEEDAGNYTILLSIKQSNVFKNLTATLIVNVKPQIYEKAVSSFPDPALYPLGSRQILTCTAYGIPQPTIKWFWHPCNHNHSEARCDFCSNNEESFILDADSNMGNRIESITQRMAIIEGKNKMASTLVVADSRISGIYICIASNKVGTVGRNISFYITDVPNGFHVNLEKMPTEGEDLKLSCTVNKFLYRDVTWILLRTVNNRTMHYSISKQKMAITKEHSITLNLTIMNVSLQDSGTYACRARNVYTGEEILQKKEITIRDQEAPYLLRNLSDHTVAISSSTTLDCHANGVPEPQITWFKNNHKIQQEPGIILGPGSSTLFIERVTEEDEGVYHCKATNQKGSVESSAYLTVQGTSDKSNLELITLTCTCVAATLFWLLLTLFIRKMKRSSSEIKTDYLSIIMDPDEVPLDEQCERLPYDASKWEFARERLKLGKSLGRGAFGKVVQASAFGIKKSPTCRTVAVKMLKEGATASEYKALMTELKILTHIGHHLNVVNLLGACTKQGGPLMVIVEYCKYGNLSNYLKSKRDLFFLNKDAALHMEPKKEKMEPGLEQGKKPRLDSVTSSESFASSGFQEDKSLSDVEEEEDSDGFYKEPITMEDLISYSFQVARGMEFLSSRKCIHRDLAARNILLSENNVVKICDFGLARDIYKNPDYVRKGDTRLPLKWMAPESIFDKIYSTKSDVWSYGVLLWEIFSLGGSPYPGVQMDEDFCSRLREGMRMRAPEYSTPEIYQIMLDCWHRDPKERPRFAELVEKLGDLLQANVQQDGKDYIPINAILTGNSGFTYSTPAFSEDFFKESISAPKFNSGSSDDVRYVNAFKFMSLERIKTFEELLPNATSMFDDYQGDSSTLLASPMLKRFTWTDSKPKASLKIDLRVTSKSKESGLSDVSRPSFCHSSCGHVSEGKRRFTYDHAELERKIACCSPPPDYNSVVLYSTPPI
Chain of PIKfyve (Q9Y2I7 whole entry): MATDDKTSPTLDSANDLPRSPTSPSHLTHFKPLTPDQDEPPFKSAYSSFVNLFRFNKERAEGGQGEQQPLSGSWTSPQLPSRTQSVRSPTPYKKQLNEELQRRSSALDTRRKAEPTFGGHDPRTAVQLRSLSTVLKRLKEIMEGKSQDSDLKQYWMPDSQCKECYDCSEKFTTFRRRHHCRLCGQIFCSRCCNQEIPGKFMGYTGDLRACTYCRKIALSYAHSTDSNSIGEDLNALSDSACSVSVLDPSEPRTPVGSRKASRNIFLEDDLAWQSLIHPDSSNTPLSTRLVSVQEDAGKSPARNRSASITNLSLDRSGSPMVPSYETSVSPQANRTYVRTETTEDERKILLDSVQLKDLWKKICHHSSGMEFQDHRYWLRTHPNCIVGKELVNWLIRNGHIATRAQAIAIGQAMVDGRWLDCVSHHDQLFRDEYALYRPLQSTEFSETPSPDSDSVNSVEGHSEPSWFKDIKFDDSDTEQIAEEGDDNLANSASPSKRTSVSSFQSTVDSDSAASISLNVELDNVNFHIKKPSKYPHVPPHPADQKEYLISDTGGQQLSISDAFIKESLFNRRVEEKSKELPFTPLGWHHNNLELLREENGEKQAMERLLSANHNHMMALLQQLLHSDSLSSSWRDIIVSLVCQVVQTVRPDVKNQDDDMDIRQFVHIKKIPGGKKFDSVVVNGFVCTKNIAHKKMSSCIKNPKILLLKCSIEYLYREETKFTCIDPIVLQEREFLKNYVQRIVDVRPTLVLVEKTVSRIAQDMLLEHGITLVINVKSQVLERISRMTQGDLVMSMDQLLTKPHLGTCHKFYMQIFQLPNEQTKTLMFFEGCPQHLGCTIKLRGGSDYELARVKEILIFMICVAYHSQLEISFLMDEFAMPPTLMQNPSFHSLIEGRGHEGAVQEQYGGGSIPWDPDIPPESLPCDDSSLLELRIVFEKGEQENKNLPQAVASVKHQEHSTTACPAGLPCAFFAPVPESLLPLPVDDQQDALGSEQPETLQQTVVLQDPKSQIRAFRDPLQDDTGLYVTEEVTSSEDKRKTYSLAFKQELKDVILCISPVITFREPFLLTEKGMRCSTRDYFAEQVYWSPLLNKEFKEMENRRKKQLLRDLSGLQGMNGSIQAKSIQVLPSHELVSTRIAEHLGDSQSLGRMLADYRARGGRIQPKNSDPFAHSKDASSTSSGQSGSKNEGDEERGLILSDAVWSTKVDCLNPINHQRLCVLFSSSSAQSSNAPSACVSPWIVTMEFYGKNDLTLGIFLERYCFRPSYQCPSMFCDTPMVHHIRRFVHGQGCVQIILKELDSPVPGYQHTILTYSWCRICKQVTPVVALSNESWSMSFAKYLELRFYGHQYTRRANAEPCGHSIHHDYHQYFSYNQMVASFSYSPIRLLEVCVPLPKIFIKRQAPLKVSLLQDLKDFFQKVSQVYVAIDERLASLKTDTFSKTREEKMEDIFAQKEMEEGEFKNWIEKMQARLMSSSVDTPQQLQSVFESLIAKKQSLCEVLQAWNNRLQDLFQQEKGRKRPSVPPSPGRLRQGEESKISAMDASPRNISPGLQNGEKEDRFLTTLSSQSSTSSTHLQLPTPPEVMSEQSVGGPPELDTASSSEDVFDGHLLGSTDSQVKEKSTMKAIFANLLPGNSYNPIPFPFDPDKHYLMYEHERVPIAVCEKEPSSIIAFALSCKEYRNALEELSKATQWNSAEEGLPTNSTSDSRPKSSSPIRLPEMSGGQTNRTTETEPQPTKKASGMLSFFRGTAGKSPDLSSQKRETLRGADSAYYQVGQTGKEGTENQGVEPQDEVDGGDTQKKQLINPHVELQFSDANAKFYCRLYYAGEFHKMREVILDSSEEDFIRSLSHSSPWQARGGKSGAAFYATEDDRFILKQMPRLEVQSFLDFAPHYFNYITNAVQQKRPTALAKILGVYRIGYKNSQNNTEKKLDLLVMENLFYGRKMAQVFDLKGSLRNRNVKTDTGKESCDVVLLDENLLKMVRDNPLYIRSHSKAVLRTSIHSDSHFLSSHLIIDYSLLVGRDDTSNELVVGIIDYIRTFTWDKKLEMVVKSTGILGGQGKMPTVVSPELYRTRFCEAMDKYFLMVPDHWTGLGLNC

On to `CC(C)Cn1c2ccc(Nc3ncccn3)cc2c2c3c(c4c(c21)CCc1nn(C)cc1-4)C(=O)NC3` [ESK981, 13-isobutyl-4-methyl-10-(pyrimidin-2-ylamino)-1,2,4,7,8,13-hexahydro-6H-indazolo[5,4-a]pyrrolo[3,4-c]carbazol-6-one], for which, in [1], the 50% inhibitory concentration (IC50) is 35 to 192 nM. The invasion entry in experiment [2] was “inhibited invasion in a dose-dependent manner”. In [3] (day 21), the tumor weights entry was “significant decreases in tumor weights”. The tumor growth entry in experiment [3] (oral gavage 5 days per week, SCID mice) was “Significant inhibition of tumor growth”. Further, in experiment [4] (VCaP cells, 300 nM), the “time to evidence of increase in LC3-II” value is recorded as “within three hours”. Further, in [4] (numerous prostate cancer cell lines, 24 hours, dose-dependent), the “total level of LC3 lipidation” value is “increase in the total level of LC3 lipidation”. Further, in [5], the “time to vacuole formation” value is “only observed after four hours of treatment”. Besides, the “time to LC3 puncta formation” value in experiment [5] (300 nM) was at most 1 h. Further, the “lysosome quantity (LysoTracker Green)” value in experiment [6] is recorded as “Increased ESK981 lysosome quantity was observed in a dose-dependent manner”. In the experiment on PC3 and DU145 cells, the “autophagic flux (GFP/RFP ratio)” value is reported as “low autophagic flux”. For the same molecule, in [7], the autophagic flux result is recorded as “inhibited”. The LC3 lipidation entry in experiment [8] (Atg5 knockout MEFs) is recorded as “abolished”. For the same molecule, the results for the vacuolization result in [8] (autophagy-deficient Atg5−/− MEFs) and in experiment [8] (wild-type MEF cells) were “largely attenuated” and “significantly induced”, respectively. Further, the “rank in inducing CXCL10 levels among compound libraries” value in the experiment with CXCL10 in VCaP cells was “ranked first in inducing CXCL10 levels in the tyrosine kinase inhibitor library and second in the autophagy-linked compound library”. Also, the activity against kinase entry on VEGFR-1 (FLT1) was “potent activity”. On PIKfyve, this molecule returned a dissociation constant Kd of 12 nM.
